In patent US10723705B2, “Heterocyclic compounds and uses thereof” (Incyte Corporation, priority 2015, dated 2020):

Biological target: Human recombinant Histone Deacetylase 8 (HDAC8) (Homo sapiens (Human), UniProt Q9BY41)
Test: HDAC8 Enzymatic Assay (HDAC-Glo I/II luminescence)
Format: biochemical
Conditions: HDAC8; read-out: IC50
Method: HDAC-Glo™ I/II Assay Kit was purchased from Promega Corporation (Madison, Wis.), including the following components: HDAC-Glo I/II Buffer (25 mM Tris buffer, pH 8.0, supplemented with 137 mM: NaCl, 2.7 mM KCl, 1% v/v Triton X-100 and 1 mM: MgCl2), luminogenic substrates Boc-GAK(Ac)-aminoluciferin (HDAC-Glo I/II substrate), proprietary developer reagent (containing trypsin). Human recombinant Histone Deacetylase 8 (HDAC8) was purchased from Enzo Life Sciences (Plymouth Meeting, Pa.).
The HDAC8 reaction was performed at room temperature in white 384-well polystyrene, flat-bottom microtiter plate (Greiner Bio-one, Monroe, N.C.) in a final volume of 20 μL. Test compounds were first diluted serially in DMSO and 100 nL were transferred to the plate wells by Echo 550 (Labcyte, Sunnyvale, Calif.) before the addition of other reaction components. The final concentration of DMSO in the assay was 0.5%. The HDAC-Glo I/II assay reagent was prepared by rehydration of lyophilized HDAC-Glo I/II substrate in 10 mL. HDAC-Glo I/II assay buffer followed with the addition of 10 μL of developer reagent. 10 uL of 3 nM HDAC8 in the HDAC-Glo I/II assay buffer were first dispensed into the microliter plate containing the compounds and incubated at room temperature for 30 min. The reactions were initiated with the addition of 10 uL HDAC-Glo I/II assay reagent with Multidrop (Thermo, Waltham, Mass.). The final concentration of HDAC8 and HDAC-Glo I/II substrate in the reaction were 1.5 nM and 50 μM, respectively. The assay plate was mixed for 1 min by orbital shaking (500 rpm) and centrifuged for 1 min at 1500 rpm. After 15 min at room temperature, luminescence signals were measured on TopCount (Perkin Elmer). Wells with no compound served as the positive controls and wells containing no HDAC8 were used as negative controls. IC50 determination was performed by fitting the curve of percentage control activity versus the log of the compound concentration using the GraphPad Prism 6.0 software.

Sequence of Human recombinant Histone Deacetylase 8 (HDAC8) (Q9BY41 whole entry): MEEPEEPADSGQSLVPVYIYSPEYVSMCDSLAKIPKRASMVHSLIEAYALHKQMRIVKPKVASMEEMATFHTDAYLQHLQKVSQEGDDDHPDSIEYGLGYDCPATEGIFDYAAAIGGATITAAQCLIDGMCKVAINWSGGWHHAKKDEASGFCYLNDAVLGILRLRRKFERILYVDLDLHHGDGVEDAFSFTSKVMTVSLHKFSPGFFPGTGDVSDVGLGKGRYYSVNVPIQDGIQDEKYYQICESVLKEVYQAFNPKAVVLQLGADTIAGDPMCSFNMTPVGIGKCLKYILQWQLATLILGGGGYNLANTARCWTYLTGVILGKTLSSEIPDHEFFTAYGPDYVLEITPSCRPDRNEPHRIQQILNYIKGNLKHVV

IC50	Structure (SMILES)
22 nM	O=C(NO)C(Cc1ccccc1)c1cnc2cc(Cl)ccn12 (centres unmarked) [Compound I-0093, 2-(7-Chloroimidazo[1,2-a]pyridin-3-yl)-N-hydroxy-3-phenylpropanamide]
338 nM	O=C(NO)C(Cc1ccccc1)n1cc2cc(Cl)ccc2n1 (centres unmarked) [Compound I-0003, 2-(5-Chloro-2H-indazol-2-yl)-N-hydroxy-3-phenylpropanamide]
101 nM	O=C(NO)C(Cc1ccccc1)n1nc(C#CC2CC2)c2ccnc(Cl)c21 (centres unmarked) [Compound I-0126, 2-[7-Chloro-3-(cyclopropylethynyl)-1H-pyrazolo[3,4-c]pyridin-1-yl]-N-hydroxy-3-phenylpropanamide]

Same assay, conditions: class symbols, Table 14; read-out: HDAC8 IC50

IC50	Structure (SMILES)
≤ 50 nM	O=C(NO)C(Cc1ccccc1)c1cnc2cc(Cl)ccn12 (centres unmarked) [Compound I-0093, 2-(7-Chloroimidazo[1,2-a]pyridin-3-yl)-N-hydroxy-3-phenylpropanamide]
> 500 nM	O=C(NO)C(Cc1ccccc1)n1cc2ccc(C(F)(F)F)cc2n1 (centres unmarked) [Compound I-0038, N-hydroxy-3-phenyl-2-(6-(trifluoromethyl)-2H-indazol-2-yl)propanamide]
50 to 200 nM	O=C(NO)C(Cc1ccccc1)n1ncc2c(-c3ccncc3)nccc21 (centres unmarked) [Compound I-0070, N-hydroxy-3-phenyl-2-(4-(pyridin-4-yl)-1H-pyrazolo[4,3-c]pyridin-1-yl)propanamide]
200 to 500 nM	O=C(NO)C(Cc1ccccc1)n1cc2cc(Cl)ccc2n1 (centres unmarked) [Compound I-0003, 2-(5-Chloro-2H-indazol-2-yl)-N-hydroxy-3-phenylpropanamide]
50 to 200 nM	Cn1nccc1-c1cccc2c1cnn2C(Cc1ccccc1)C(=O)NO (centres unmarked) [Compound I-0083, N-hydroxy-2-(4-(1-methyl-1H-pyrazol-5-yl)-1H-indazol-1-yl)-3-phenylpropanamide]
200 to 500 nM	O=C(NO)C(Cc1ccccc1)c1cnc2cc(-c3cccnc3)ccn12 (centres unmarked) [Compound I-0114, N-hydroxy-3-phenyl-2-(7-(pyridin-3-yl)imidazo[1,2-a]pyridin-3-yl)propanamide]
> 500 nM	O=C(NO)C(Cc1ccccc1)n1cc2cccc(CN3CCC(C(F)(F)F)CC3)c2n1 (centres unmarked) [Compound I-0191, N-hydroxy-3-phenyl-2-(7-((4-(trifluoromethyl)piperidin-1-yl)methyl)-2H-indazol-2-yl)propanamide]
200 to 500 nM	O=C(NO)C(Cc1ccccc1)n1cc2cc(-c3cncnc3)ccc2n1 (centres unmarked) [Compound I-0051, N-hydroxy-3-phenyl-2-(5-(pyrimidin-5-yl)-2H-indazol-2-yl)propanamide]
200 to 500 nM	CCc1ccc2c(cnn2C(Cc2ccccc2)C(=O)NO)c1 (centres unmarked) [Compound I-0020, 2-(5-ethyl-1H-indazol-1-yl)-N-hydroxy-3-phenylpropanamide]
200 to 500 nM	O=C(NO)C(Cc1ccccc1)n1cc2ccc(-c3cccnc3)cc2n1 (centres unmarked) [Compound I-0008, N-hydroxy-3-phenyl-2-(6-(pyridin-3-yl)-2H-indazol-2-yl)propanamide]
> 500 nM	O=C(NO)C(Cc1ccccc1)n1ncc2cc(-c3ccncc3)ncc21 (centres unmarked) [Compound I-0097, N-hydroxy-3-phenyl-2-(5-(pyridin-4-yl)-1H-pyrazolo[3,4-c]pyridin-1-yl)propanamide]
> 500 nM	O=C(NO)C(Cc1ccccc1)n1cc2cccc(CN3CCC4(CC3)COC4)c2n1 (centres unmarked) [Compound I-0186, 2-(7-(2-oxa-7-azaspiro[3.5]nonan-7-ylmethyl)-2H-indazol-2-yl)-N-hydroxy-3-phenylpropanamide]

More lines, now with the values behind:

Structure (SMILES)	IC50
Cn1nccc1-c1ccc2cn(C(Cc3ccccc3)C(=O)NO)nc2c1 (centres unmarked) [Compound I-0047, N-hydroxy-2-(6-(1-methyl-1H-pyrazol-5-yl)-2H-indazol-2-yl)-3-phenylpropanamide]	200 to 500 nM
CN(C)C(=O)c1ccc(-c2ccc3c(cnn3C(Cc3ccccc3)C(=O)NO)c2)cc1 (centres unmarked) [Compound I-0106, 4-(1-(1-(hydroxyamino)-1-oxo-3-phenylpropan-2-yl)-1H-indazol-5-yl)-N,N-dimethylbenzamide]	200 to 500 nM
CN(C)C(=O)c1ccc(-c2cccc3c(C#CC4CC4)n(C(Cc4ccccc4)C(=O)NO)nc23)cc1 (centres unmarked) [Compound I-0139, 4-(3-(cyclopropylethynyl)-2-(1-(hydroxyamino)-1-oxo-3-phenylpropan-2-yl)-2H-indazol-7-yl)-N,N-dimethylbenzamide]	≤ 50 nM
Cc1cccc2c(C#CC3CC3)n(C(Cc3ccccc3)C(=O)NO)nc12 (centres unmarked) [Compound I-0161, 2-(3-(cyclopropylethynyl)-7-methyl-2H-indazol-2-yl)-N-hydroxy-3-phenylpropanamide]	≤ 50 nM
N#Cc1ccc(-c2cc3cnn(C(Cc4ccccc4)C(=O)NO)c3cn2)cc1 (centres unmarked) [Compound I-0088, 2-(5-(4-cyanophenyl)-1H-pyrazolo[3,4-c]pyridin-1-yl)-N-hydroxy-3-phenylpropanamide]	> 500 nM
CN1CCC(c2ccc3cn(C(Cc4ccccc4)C(=O)NO)nc3c2)CC1 (centres unmarked) [Compound I-0048, N-hydroxy-2-(6-(1-methylpiperidin-4-yl)-2H-indazol-2-yl)-3-phenylpropanamide]	> 500 nM
O=C(NO)C(Cc1ccccc1)n1nc(C#CC2CC2)c2ccnc(Cl)c21 (centres unmarked) [Compound I-0126, 2-[7-Chloro-3-(cyclopropylethynyl)-1H-pyrazolo[3,4-c]pyridin-1-yl]-N-hydroxy-3-phenylpropanamide]	50 to 200 nM
O=C(NO)C(Cc1ccccc1)c1cnc2c(-c3ccncc3)cccn12 (centres unmarked) [Compound I-0162, N-hydroxy-3-phenyl-2-(8-(pyridin-4-yl)imidazo[1,2-a]pyridin-3-yl)propanamide]	200 to 500 nM
O=C(NO)C(Cc1ccccc1)n1nc2ccc(-c3c(F)cccc3F)cc2c1C#CC1CC1 (centres unmarked) [Compound I-0027, 2-(3-(cyclopropylethynyl)-5-(2,6-difluorophenyl)-2H-indazol-2-yl)-N-hydroxy-3-phenylpropanamide]	200 to 500 nM
N#Cc1ccc(-c2ccc3c(cnn3C(Cc3ccccc3)C(=O)NO)c2)cc1 (centres unmarked) [Compound I-0015, 2-(5-(4-cyanophenyl)-1H-indazol-1-yl)-N-hydroxy-3-phenylpropanamide]	200 to 500 nM
CN1CCN(Cc2cccc3cn(C(Cc4ccccc4)C(=O)NO)nc23)CC1=O (centres unmarked) [Compound I-0192, N-hydroxy-2-(7-((4-methyl-3-oxopiperazin-1-yl)methyl)-2H-indazol-2-yl)-3-phenylpropanamide]	50 to 200 nM
O=C(NO)C(Cc1ccccc1)n1cc2cccc(C(=O)N3CCC4(CC3)COC4)c2n1 (centres unmarked) [Compound I-0174, 2-(7-(2-oxa-7-azaspiro[3.5]nonane-7-carbonyl)-2H-indazol-2-yl)-N-hydroxy-3-phenylpropanamide]	> 500 nM
NC(=O)c1cccc(-c2cccn3c(C(Cc4ccccc4)C(=O)NO)cnc23)c1 (centres unmarked) [Compound I-0169, 3-(3-(1-(hydroxyamino)-1-oxo-3-phenylpropan-2-yl)imidazo[1,2-a]pyridin-8-yl)benzamide]	200 to 500 nM
O=C(NO)C(Cc1ccccc1)n1ccc2c(Cl)nccc21 (centres unmarked) [Compound I-0196, 2-(4-chloro-1H-pyrrolo[3,2-c]pyridin-1-yl)-N-hydroxy-3-phenylpropanamide]	200 to 500 nM
O=C(NCCC1CCOCC1)c1cccc2cn(C(Cc3ccccc3)C(=O)NO)nc12 (centres unmarked) [Compound I-0178, 2-(1-(hydroxyamino)-1-oxo-3-phenylpropan-2-yl)-N-(2-(tetrahydro-2H-pyran-4-yl)ethyl)-2H-indazole-7-carboxamide]	≤ 50 nM
NC(=O)c1ccc(-c2cccn3c(C(Cc4ccccc4)C(=O)NO)cnc23)cc1 (centres unmarked) [Compound I-0167, 4-(3-(1-(hydroxyamino)-1-oxo-3-phenylpropan-2-yl)imidazo[1,2-a]pyridin-8-yl)benzamide]	200 to 500 nM
CN(C)C(=O)c1ccc(-c2nccc3c(C#CC4CC4)n(C(Cc4ccccc4)C(=O)NO)nc23)cc1 (centres unmarked) [Compound I-0142, 4-(3-(cyclopropylethynyl)-2-(1-(hydroxyamino)-1-oxo-3-phenylpropan-2-yl)-2H-pyrazolo[3,4-c]pyridin-7-yl)-N,N-dimethylbenzamide]	≤ 50 nM
